Consider 7 compounds from patent EP0363041A1 (priority 1988, dated 1990).

Values joined by “and” are separate entries in the source; they are usually repeats but may differ in a detail not shown here. Equal entries are not always repeated. Where two headings read alike, the source gives them in different places.

Among the test systems are MO-2; MO-4; MO-3; MO-6; MO-5.
Common to all, as to format: binding, mouse
Assay [1] relates to "antibody carrier" (monoclonal antibody of MO-3 strain). In words: Latex agglutination assay: competition with "normorphine carrier" for "antibody carrier".

Take `COC(=O)[C@H]1[C@@H](OC(=O)c2ccccc2)C[C@@H]2CC[C@H]1N2C` [Cocaine, cocaine]: the “reactivity ratio with morphine, MO-2” value in the assay with MO-2 is recorded as under 1.0. Moreover, in the assay on MO-4, the “reactivity ratio with morphine, MO-4” value is reported as under 0.001. Moreover, in assay [1], the “time at which polystyrene latex particles were observed to be agglutinated” value was 16 s and 13 s. For the same compound, the “reactivity ratio with morphine, MO-3” value with MO-3 is listed as under 0.001. For the same compound, the “reactivity ratio with morphine, MO-6” value in the assay with MO-6 is reported as under 0.1. Moreover, the “reactivity ratio with morphine, MO-5” value in the assay with MO-5 is on record as under 0.001.
For `COc1ccc2c3c1O[C@H]1[C@@H](O)C=C[C@H]4[C@@H](C2)N(C)CC[C@@]341` [Codeine, codeine], the “reactivity ratio with morphine, MO-2” value in the assay on MO-2 was under 1.0. In addition, in the assay on MO-4, the “reactivity ratio with morphine, MO-4” value is recorded as under 0.1. Moreover, the “reactivity ratio with morphine, MO-3” value with MO-3 is reported as under 0.1. Also, the “reactivity ratio with morphine, MO-6” value in the assay with MO-6 is under 0.1. The “reactivity ratio with morphine, MO-5” value in the assay with MO-5 is under 0.1.
`CCOc1ccc2c3c1O[C@H]1[C@@H](O)C=C[C@H]4[C@@H](C2)N(C)CC[C@@]341` [Ethylmorphine, ethylmorphine]: the “reactivity ratio with morphine, MO-2” value in the assay with MO-2 is recorded as under 1.0. Besides, the “reactivity ratio with morphine, MO-4” value in the assay with MO-4 was under 0.01. Also, the “time at which polystyrene latex particles were observed to be agglutinated” value in assay [1] (0.3 ppm in urine of healthy men, normorphine carrier of Example 5, 0 ppm gives 16 seconds) came out at 16 s; in assay [1] (0.3 ppm in urine of healthy men, normorphine carrier of Example 6, 0 ppm gives 13 seconds), 13 s. Also, the “reactivity ratio with morphine, MO-3” value with MO-3 was under 0.01. Moreover, in the assay on MO-6, the “reactivity ratio with morphine, MO-6” value is given as under 0.1. Also, in the assay with MO-5, the “reactivity ratio with morphine, MO-5” value was under 0.01.
As for `CN1CC[C@]23c4c5ccc(O[C@@H]6O[C@H](C(=O)O)[C@@H](O)[C@H](O)[C@H]6O)c4O[C@H]2[C@@H](O)C=C[C@H]3[C@H]1C5` [M - 3 - G, morphine-3-glucronide], the “reactivity ratio with morphine, MO-2” value in the assay with MO-2 is recorded as 2.0. Also, the “reactivity ratio with morphine, MO-4” value in the assay on MO-4 was found to be 0.2. Also, in the assay with MO-3, the “reactivity ratio with morphine, MO-3” value is on record as 0.1. In the assay on MO-6, the “reactivity ratio with morphine, MO-6” value is 0.3. Moreover, in the assay with MO-5, the “reactivity ratio with morphine, MO-5” value was found to be 0.5.
Turning to `CN1CC[C@]23c4c5ccc(O)c4O[C@H]2[C@@H](O[C@@H]2O[C@H](C(=O)O)[C@@H](O)[C@H](O)[C@H]2O)C=C[C@H]3[C@H]1C5` [M - 6 - G, morphine-6-glucronide], the “reactivity ratio with morphine, MO-2” value in the assay on MO-2 amounted to 440. In addition, the “reactivity ratio with morphine, MO-4” value with MO-4 turned out to be 0.9. Besides, the “reactivity ratio with morphine, MO-3” value with MO-3 amounted to 0.6. The “reactivity ratio with morphine, MO-6” value with MO-6 came to 1.0. In the assay with MO-5, the “reactivity ratio with morphine, MO-5” value was found to be 0.9.
Regarding `CCC(=O)C(CC(C)N(C)C)(c1ccccc1)c1ccccc1` (centres unmarked) [Methadone, methadone], the “reactivity ratio with morphine, MO-2” value with MO-2 is under 1.0. Besides, the “reactivity ratio with morphine, MO-4” value in the assay on MO-4 was under 0.001. In the assay on MO-3, the “reactivity ratio with morphine, MO-3” value was under 0.001. For the same compound, in the assay on MO-6, the “reactivity ratio with morphine, MO-6” value is reported as under 0.1. Moreover, in the assay on MO-5, the “reactivity ratio with morphine, MO-5” value is given as under 0.001.
For `CN1CC[C@]23c4c5ccc(O)c4O[C@H]2[C@@H](O)C=C[C@H]3[C@H]1C5` [Morphine, morphine], in the assay with MO-2, the “reactivity ratio with morphine, MO-2” value came to 100. For the same compound, the “reactivity ratio with morphine, MO-4” value in the assay with MO-4 came to 100. Also, the “reactivity ratio with morphine, MO-3” value in the assay with MO-3 stood at 100. In addition, in the assay on MO-6, the “reactivity ratio with morphine, MO-6” value is 100. Further, the “reactivity ratio with morphine, MO-5” value in the assay on MO-5 is 100.
